In patent US4020060A, “7-[α-Amino- ω-(3,4-methylenedioxyphenyl)acylamido]cephalosporanic acid derivatives” (Richardson-Merrell Inc., priority 1975, dated 1977) one finds ED50 and MIC data, which are given here for 1 compound.

In brackets after ≈: the same amount, converted by molar mass. Read-outs that look alike come from different tables or passages of the source.

Test [1] relates to Streptococcus pyogenes. Kind of test: in vivo protection of mice challenged with a fatal bacterial infection. As to conditions: 1 and 4 hours after challenge, read-out: dose required per treatment to protect fifty percent of the infected mice (ED50). The protocol:
(§1) The following example illustrates the in vivo activity of the compounds of this invention.
(§2) Several groups of 10 mice are challenged with a fatal bacterial infection. Various dose levels of the test compound are administered orally or subcutaneously to separate groups of these animals 1 and 4 hours after challenge. After three or four days, depending upon the test organism, the number of survivors are recorded at each dose level and the dose required per treatment to protect fifty percent of the infected mice (ED50) is calculated by the method described by Reed and Muench, Amer. J. Hyg. 27, 493-497 (1938).

Test [2] concerns Salmonella schottmuelleri. The test is described as above. As to conditions: sc, subcutaneous, 1 and 4 hours after challenge, read-out: dose required per treatment to protect fifty percent of the infected mice (ED50). The protocol:
as §1, §2

Test [3] has as its system Diplococcus pneumoniae. The description is as above. As to conditions: Streptococcus pneumoniae, 1 and 4 hours after challenge, read-out: dose required per treatment to protect fifty percent of the infected mice (ED50). The procedure:
as §1, §2

Test [4] relates to Streptococcus pyogenes. Put plainly: in vitro minimal inhibitory concentration, two-fold serial dilutions in trypticase soy broth. It counts as cell-based. As to conditions: 24 hours at 37° C. The procedure: (§3) The following example illustrates the in vitro activity of the compounds of this invention.
(§4) Two-fold serial dilutions of the test compound are made in trypticase soy broth. A series of tubes of both containing different concentrations of the test compound are inoculated with the particular bacterial culture used for in vitro activity. The inoculated tubes are examined for the inhibition of bacterial growth after 24 hours of incubation at 37° C. The following table summarizes the minimal inhibitory concentration (MIC) for the various bacterial cultures tested with the compound 7-[2-amino-2-(3,4-methylenedioxyphenyl)acetamido]desacetoxycephalosporanicacid.

The subject of test [5] is Salmonella schottmuelleri. Described as above. It counts as cell-based. As to conditions: 24 hours at 37° C. The procedure: as §3, §4
The subject of another test is Staphylococcus aureus. The test is described as above. In kind it is cell-based. As to conditions: 24 hours at 37° C. The procedure: as §3, §4
Test [6] relates to Diplococcus pneumoniae. The test is described as above. It counts as cell-based. As to conditions: Streptococcus pneumoniae, 24 hours at 37° C. The protocol:
as §3, §4

In the next test the test system is Escherichia coli. The test is described as above. It counts as cell-based. As to conditions: 24 hours at 37° C. The protocol:
as §3, §4

Regarding `CC1=C(C(=O)O)N2C(=O)C(NC(=O)C(N)c3ccc4c(c3)OCO4)C2SC1` (stereo not shown) [7-[2-Amino-2-(3,4-methylenedioxyphenyl)acetamido] desacetoxycephalosporanic acid], the ED50 in the test on Streptococcus pyogenes [1] (po, per os) worked out at 1 mg/kg; in the test with Streptococcus pyogenes [1] (sc, subcutaneous), 0.9 mg/kg; in test [2], 26 mg/kg; with Diplococcus pneumoniae [3] (po, per os), 45 mg/kg; in the test on Diplococcus pneumoniae [3] (sc, subcutaneous), 40 mg/kg. The MIC in the test on Streptococcus pyogenes [4] is 0.8 µg/mL (≈ 2.04 µM); in test [5] it was 50 µg/mL (≈ 128 µM); in the test on Staphylococcus aureus it was 1.6 µg/mL (≈ 4.09 µM); in the test with Diplococcus pneumoniae [6], 3.1 µg/mL (≈ 7.92 µM); in the test with Escherichia coli it was 50 µg/mL (≈ 128 µM).

One may read the ED50 as the dose at which the effect has come halfway, by size or by number of responders. What is called MIC is the lowest concentration found to suppress growth.
